From patent US7915276B2, “Berberrubine derivatives having antifungal activities” (priority 2006, dated 2011)

Legend:
[1] = biological target: T1, chitin synthase 1 of Candida albicans chs2 Δ chs 3 Δ (Candida albicans, UniProt P23316); experiment: In vitro enzyme assay for chitin synthase 1 of Candida albicans (enzyme 1); type: biochemical; settings: relative to polyoxin D (50% inhibitory activity = value 5)
T1 construct: Crude enzyme was prepared using the Candida albicans chs2 Δ chs 3 Δ mutant; endogenous in cells; host or cells: Candida albicans chs2Δ/chs2Δ chs3Δ/chs3Δ mutant; 130,000 x g membrane pellet
How it was run: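 Crude membrane enzyme from the C. albicans chs2Δ chs3Δ strain was trypsin-activated for 15 min at 30 °C. Reaction: 32 mM Tris-HCl pH 7.5, 2 mM cobalt acetate, 1.1 mM UDP-[14C]GlcNAc, 90 min at 30 °C; TCA-insoluble radioactivity counted. Scored 1–8 by relative polyoxin D concentration (5 = equal).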

[2] = biological target: T2, chitin synthase 2 of Saccharomyces cerevisiae ECY38-38A(pAS6) (Saccharomyces cerevisiae, UniProt P14180); experiment: In vitro enzyme assay for chitin synthase 2 of Saccharomyces cerevisiae (enzyme 2); type: biochemical; settings: relative to polyoxin D (50% inhibitory activity = value 5)
T2 construct: made in house; host or cells: Saccharomyces cerevisiae ECY38-38A (chs1-23 chs2::LEU2 cal1/csd2) carrying plasmid pAS6, grown in galactose medium; 130,000 x g membrane pellet
How it was run: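 Crude membrane chitin synthase 2 came from S. cerevisiae ECY38-38A(pAS6), expressing only CHS2, and was trypsin-activated (15 min, 30 °C) then trypsin-inhibited. The reaction ran in 32 mM Tris-HCl pH 7.5, 2 mM cobalt acetate, 1.1 mM UDP-[14C]-GlcNAc, 90 min at 30 °C. TCA-precipitated product was counted by scintillation; scores 1–8 reflect concentration relative to polyoxin D's 50% inhibition (score 5).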

[3] = system: Aspergillus flavus ATCC 64025; experiment: In vitro antifungal activity (MIC), NCCLS method; type: cell-based; settings: 48 hours
How it was run: (§1)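 Test samples were serially diluted two-fold, then inoculated with fungus to a final cell density of 5×10^2 to 2.5×10^3 cell/mL, following the NCCLS method. Plates were cultured for 48 hours and the minimum inhibitory concentration recorded.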

[4] = system: Aspergillus fumigatus ATCC 16424; experiment: In vitro antifungal activity (MIC), NCCLS method; type: cell-based; settings: 48 hours
How it was run: as §1

[5] = system: Aspergillus terreus ATCC 46941; experiment: In vitro antifungal activity (MIC), NCCLS method; type: cell-based; settings: 48 hours
How it was run: as §1

[6] = system: Candida albicans A207 (clinical isolate); experiment: In vitro antifungal activity (MIC), NCCLS method; type: cell-based; settings: 48 hours
How it was run: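 Two-fold dilutions, final inoculum 5×10^2–2.5×10^3 cell/mL, NCCLS protocol; 48 h culture for these strains. MIC = minimum inhibitory concentration.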

[7] = system: Candida albicans ATCC 10231; experiment: In vitro antifungal activity (MIC), NCCLS method; type: cell-based; settings: 48 hours
How it was run: (§2)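 ATCC reference strains tested by NCCLS MIC method. Final inoculum 5×10^2 to 2.5×10^3 cell/mL over a two-fold dilution series; 48 h incubation.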

[8] = system: Candida glabrata ATCC 48435; experiment: In vitro antifungal activity (MIC), NCCLS method; type: cell-based; settings: Candida glabrata ATCC 48435; 48 hours
How it was run: as §2

Candida krusei ATCC 6258 = experiment: In vitro antifungal activity (MIC), NCCLS method; type: cell-based; settings: 48 hours
How it was run: as §2

[9] = system: Candida lusitaniae ATCC 42720; experiment: In vitro antifungal activity (MIC), NCCLS method; type: cell-based; settings: 48 hours
How it was run: as §2

[10] = system: Candida parapsilosis ATCC 34136; experiment: In vitro antifungal activity (MIC), NCCLS method; type: cell-based; settings: Candida parapsilosis ATCC 34136; 48 hours
How it was run: as §2

[11] = system: Candida tropicalis ATCC 13803; experiment: In vitro antifungal activity (MIC), NCCLS method; type: cell-based; settings: 48 hours
How it was run: as §2

[12] = system: Cryptococcus neoformans ATCC 36556; experiment: In vitro antifungal activity (MIC), NCCLS method; type: cell-based; settings: RPMI 1640 medium, 72 hours
How it was run: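 Broth microdilution per NCCLS: two-fold serial dilutions of test compound inoculated with fungal suspension at a final 5×10^2 to 2.5×10^3 cell/mL. Strains other than Cryptococcus neoformans were incubated 48 hours before MIC reading.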

[13] = system: Mucor ramosissimus ATCC 90286; experiment: In vitro antifungal activity (MIC), NCCLS method; type: cell-based; settings: 48 hours
How it was run: as §2

Acute toxicity in mice = type: in vivo, ICR mice; settings: for Acute toxicity LD50: ICR mouse, male
Procedure: Each compound was suspended in 1% carboxymethylcellulose (CMC), and orally and abdominally administered to 6-week-old male ICR mice. […] Then, an autopsy was performed on the mice.

human pathogenic fungi = experiment: Antifungal activity against human pathogenic fungi (summary statements); type: cell-based
Source text: Candida albicans ATCC 10231, Candida lusitaniae ATCC 42720, Candida krusei ATCC 6258, Candida tropicalis ATCC 13803, Candida glabrata ATCC 48435, Candida parapsilosis ATCC 34136, Cryptococcus neoformans ATCC 36556, Aspergillus fumigatus ATCC 16424, Aspergillus flavus ATCC 64025, Aspergillus terreus ATCC 46941 and Mucor ramosissimus ATCC 90286 strains for the MIC (minimum inhibitory concentration) measurement were obtained from ATCC (American Type Culture Collection) in the U.S. The Candida albicans A207(clinical isolate) strain was used by isolating it from the patients.
The determination of MIC was performed according to the NCCLS (National Committee for Clinical Laboratory Standard) method. Each test sample solution was diluted two-fold and inoculated with a fungal suspension to reach a final inoculum size of 5×10^2 to 2.5×10^3 cell/mL. The Cryptococcus neoformans strain was cultured in the RPMI 1640 medium for 72 hours. Other strains were cultured for 48 hours.

chitin synthases = experiment: Inhibitory activity against the chitin synthases (summary statements); type: biochemical
Source text: The inhibitory activities against the chitin synthase 1 of Candida albicans chs2 Δ chs 3 Δ (abbreviated as ‘enzyme 1’) and the chitin synthase 2 of Saccharomyces cerevisiae ECY38-38A(pAS6)(abbreviated as ‘enzyme 2’) was examined for compound Nos. 1 to 70 compound and polyoxin D, a positive control compound.
The inhibitory activity against the chitin synthase 1 prepared from Candida albicans and the chitin synthase 2 prepared from Saccharomyces cerevisiae were examined as follows. A reaction mixture containing 32 mM Tris-HCl (pH 7.5), 2 mM cobalt acetate, 1.1 mM UDP-[U-^14C]-N-acetyl-d-glucosamine (GlcNAc) (400,000 cpm/μmol), 2 μL of trypsin (0.75 mg/mL), 20 μL of each crude enzyme and 14 μL of each test sample was kept at 30° C. for 15 minutes to activate the enzyme. Then, 2 μL of trypsin inhibitor (1.5 mg/mL) was added and the mixture was kept in an ice bath for 10 minutes to deactivate trypsin. 2 μL of 0.8 M N-acetyl-d-glucosamine was added to a total volume of 50 μL and reaction was performed at 30° C. for 90 minutes. The reaction was stopped using 1 mL of 10% TCA solution and the reaction solution was filtered with a GF/C filter and dried at room temperature. After adding 3 mL of a scintillation cocktail solution, the amount of isotopes was measured using a liquid scintillation counter. Percentage inhibition against each enzyme was calculated by the following Equation 1.

T2 sequence (P14180 whole entry): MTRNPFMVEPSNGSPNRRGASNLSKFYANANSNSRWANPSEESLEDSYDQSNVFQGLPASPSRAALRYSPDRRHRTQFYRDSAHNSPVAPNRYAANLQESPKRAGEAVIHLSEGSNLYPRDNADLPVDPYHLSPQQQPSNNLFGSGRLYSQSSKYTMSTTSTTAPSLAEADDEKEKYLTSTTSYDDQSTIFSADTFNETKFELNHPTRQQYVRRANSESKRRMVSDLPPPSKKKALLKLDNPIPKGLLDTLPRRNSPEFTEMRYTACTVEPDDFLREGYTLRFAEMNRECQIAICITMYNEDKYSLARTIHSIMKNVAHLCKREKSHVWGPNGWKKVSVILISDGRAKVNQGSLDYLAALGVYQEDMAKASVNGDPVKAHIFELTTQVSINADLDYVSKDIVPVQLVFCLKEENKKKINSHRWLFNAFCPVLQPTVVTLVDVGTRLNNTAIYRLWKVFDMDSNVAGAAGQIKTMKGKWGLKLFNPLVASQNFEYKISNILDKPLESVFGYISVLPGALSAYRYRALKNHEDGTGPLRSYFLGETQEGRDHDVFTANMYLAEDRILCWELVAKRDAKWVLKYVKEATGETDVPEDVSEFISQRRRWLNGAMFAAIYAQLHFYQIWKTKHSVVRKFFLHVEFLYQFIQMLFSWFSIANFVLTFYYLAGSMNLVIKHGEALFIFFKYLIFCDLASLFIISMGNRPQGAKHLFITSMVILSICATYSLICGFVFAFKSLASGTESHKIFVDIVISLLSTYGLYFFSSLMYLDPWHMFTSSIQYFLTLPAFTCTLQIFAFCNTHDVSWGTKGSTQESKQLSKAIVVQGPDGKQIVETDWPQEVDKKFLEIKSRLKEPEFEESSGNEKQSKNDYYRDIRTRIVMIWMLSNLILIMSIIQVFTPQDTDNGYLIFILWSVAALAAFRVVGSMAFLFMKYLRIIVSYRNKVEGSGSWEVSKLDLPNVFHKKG
T1 sequence (P23316 whole entry, stated change not applied): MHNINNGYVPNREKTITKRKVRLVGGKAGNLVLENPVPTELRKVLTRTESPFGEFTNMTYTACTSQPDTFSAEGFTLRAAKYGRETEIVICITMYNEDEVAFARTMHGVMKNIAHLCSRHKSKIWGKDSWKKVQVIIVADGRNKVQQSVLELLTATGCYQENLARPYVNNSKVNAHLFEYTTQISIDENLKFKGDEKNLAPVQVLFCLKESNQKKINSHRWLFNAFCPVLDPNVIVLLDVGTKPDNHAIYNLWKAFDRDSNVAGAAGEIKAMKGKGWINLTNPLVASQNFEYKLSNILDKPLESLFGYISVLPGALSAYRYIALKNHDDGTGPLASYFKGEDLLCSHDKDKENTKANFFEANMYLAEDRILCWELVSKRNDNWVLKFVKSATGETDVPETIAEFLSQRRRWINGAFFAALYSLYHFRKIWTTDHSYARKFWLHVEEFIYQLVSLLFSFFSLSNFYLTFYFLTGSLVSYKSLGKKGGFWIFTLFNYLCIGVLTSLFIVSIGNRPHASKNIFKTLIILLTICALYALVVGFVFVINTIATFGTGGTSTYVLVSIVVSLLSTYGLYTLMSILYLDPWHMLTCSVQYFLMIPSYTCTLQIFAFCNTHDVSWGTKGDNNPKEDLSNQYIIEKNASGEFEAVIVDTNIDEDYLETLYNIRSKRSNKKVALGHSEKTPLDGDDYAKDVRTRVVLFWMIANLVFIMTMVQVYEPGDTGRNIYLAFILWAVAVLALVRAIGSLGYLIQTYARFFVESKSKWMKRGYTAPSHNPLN

Substance: 13-(4-tert-Butylbenzyl)-9-O-butylberberrubine iodide [Compound No. 8]
- Relative activity Enzyme 1 [1]: 4 (Compounds having the inhibitory activity at 2-fold, 4-fold, 8-fold and 16-fold higher concentrations than that of polyoxin D were given the values of 4, 3, 2 and 1, respectively)
- Relative activity Enzyme 2 [2]: 7 (compounds having the inhibitory activity at ½, ¼ and ⅛ lower concentrations than that of polyoxin D were given the values of 6, 7 and 8, respectively)
- MIC (minimum inhibitory concentration) [3]: 8 µg/mL
- MIC (minimum inhibitory concentration) [4]: 2 µg/mL
- MIC (minimum inhibitory concentration) [5]: 8 µg/mL
- MIC (minimum inhibitory concentration) [6]: 0.5 µg/mL
- MIC (minimum inhibitory concentration) [7]: 0.5 µg/mL
- MIC (minimum inhibitory concentration) [8]: 4 µg/mL
- MIC (minimum inhibitory concentration) (Candida krusei ATCC 6258): 2 µg/mL
- MIC (minimum inhibitory concentration) [9]: 1 µg/mL
- MIC (minimum inhibitory concentration) [10]: 4 µg/mL
- MIC (minimum inhibitory concentration) [11]: 0.25 µg/mL
- MIC (minimum inhibitory concentration) [12]: 1 µg/mL
- MIC (minimum inhibitory concentration) [13]: 4 µg/mL
- Acute toxicity LD50 (Acute toxicity in mice; abdominal): >15 mg/kg
- Acute toxicity LD50 (Acute toxicity in mice; oral): >1000 mg/kg
- deaths (Acute toxicity in mice; mice, oral administration dosage of 1,000 mg/kg): no case of death observed
- Autopsy findings (Acute toxicity in mice; mouse, in vivo): Nothing
- general symptoms and body weight (Acute toxicity in mice; mouse, in vivo): no abnormalities
- Autopsy findings (Acute toxicity in mice; mouse, in vivo, po): Nothing
- antifungal activities compared with amphotericin B (in words) (human pathogenic fungi): comparable to that of amphotericin B
- inhibitory activities against the chitin synthases (in words) (chitin synthases): exceptionally superior inhibitory activities

Substance: 13-(4-Isopropylbenzyl)-9-O-butylberberrubine chloride [Compound No. 50]
- Relative activity Enzyme 1 [1]: 4 (Compounds having the inhibitory activity at 2-fold, 4-fold, 8-fold and 16-fold higher concentrations than that of polyoxin D were given the values of 4, 3, 2 and 1, respectively)
- Relative activity Enzyme 2 [2]: 7 (compounds having the inhibitory activity at ½, ¼ and ⅛ lower concentrations than that of polyoxin D were given the values of 6, 7 and 8, respectively)
- MIC (minimum inhibitory concentration) [3]: 8 µg/mL
- MIC (minimum inhibitory concentration) [4]: 2 µg/mL
- MIC (minimum inhibitory concentration) [5]: 8 µg/mL
- MIC (minimum inhibitory concentration) [6]: 0.5 µg/mL
- MIC (minimum inhibitory concentration) [7]: 0.5 µg/mL
- MIC (minimum inhibitory concentration) [8]: 4 µg/mL
- MIC (minimum inhibitory concentration) (Candida krusei ATCC 6258): 1 µg/mL
- MIC (minimum inhibitory concentration) [9]: 0.5 µg/mL
- MIC (minimum inhibitory concentration) [10]: 4 µg/mL
- MIC (minimum inhibitory concentration) [11]: 0.25 µg/mL
- MIC (minimum inhibitory concentration) [12]: 1 µg/mL
- MIC (minimum inhibitory concentration) [13]: 4 µg/mL
- Acute toxicity LD50 (Acute toxicity in mice; abdominal): >15 mg/kg
- Acute toxicity LD50 (Acute toxicity in mice; oral): >1000 mg/kg
- antifungal activities compared with amphotericin B (in words) (human pathogenic fungi): comparable to that of amphotericin B
- inhibitory activities against the chitin synthases (in words) (chitin synthases): exceptionally superior inhibitory activities

Substance: 13-(4-tert-Butylbenzyl)-9-O-butylberberrubine chloride [Compound No. 40]
- Relative activity Enzyme 1 [1]: 4 (Compounds having the inhibitory activity at 2-fold, 4-fold, 8-fold and 16-fold higher concentrations than that of polyoxin D were given the values of 4, 3, 2 and 1, respectively)
- Relative activity Enzyme 2 [2]: 7 (compounds having the inhibitory activity at ½, ¼ and ⅛ lower concentrations than that of polyoxin D were given the values of 6, 7 and 8, respectively)
- MIC (minimum inhibitory concentration) [3]: 8 µg/mL
- MIC (minimum inhibitory concentration) [4]: 2 µg/mL
- MIC (minimum inhibitory concentration) [5]: 8 µg/mL
- MIC (minimum inhibitory concentration) [6]: 0.5 µg/mL
- MIC (minimum inhibitory concentration) [7]: 0.5 µg/mL
- MIC (minimum inhibitory concentration) [8]: 4 µg/mL
- MIC (minimum inhibitory concentration) (Candida krusei ATCC 6258): 1 µg/mL
- MIC (minimum inhibitory concentration) [9]: 0.5 µg/mL
- MIC (minimum inhibitory concentration) [10]: 4 µg/mL
- MIC (minimum inhibitory concentration) [11]: 0.25 µg/mL
- MIC (minimum inhibitory concentration) [12]: 1 µg/mL
- MIC (minimum inhibitory concentration) [13]: 4 µg/mL
- antifungal activities compared with amphotericin B (in words) (human pathogenic fungi): comparable to that of amphotericin B
- inhibitory activities against the chitin synthases (in words) (chitin synthases): exceptionally superior inhibitory activities
